Source: US20250230153A1, “2,3-DIHYDROBENZO[B][1,4]DIOXIN-6-YL CONTAINING COMPOUNDS USEFUL AS IMMUNOMODULATORS” (BRISTOL-MYERS SQUIBB COMPANY, priority 2021, published 2025)

Target: PD-1/PD-L1 (Homo sapiens (Human), UniProt Q9NZQ7)
Assay: PD-1/PD-L1 Homogenous Time-Resolved Fluorescence (HTRF) binding assay
Settings: PD-1-Ig (20 nM final)/PD-L1-His (10 nM final) binding assay
In short: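 Compounds pre-incubated 15 min with human PD-L1(18-239)-His (10 nM final), then 15 min with PD-1(25-167)-Ig (20 nM final), in dPBS with 0.1% BSA and 0.05% Tween-20. Detection with Eu-cryptate anti-Ig (1 nM) and APC anti-His (20 nM) after 30 min equilibration; 665/620 nm ratio read.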

PD-1/PD-L1, sequence (Q9NZQ7 18-239): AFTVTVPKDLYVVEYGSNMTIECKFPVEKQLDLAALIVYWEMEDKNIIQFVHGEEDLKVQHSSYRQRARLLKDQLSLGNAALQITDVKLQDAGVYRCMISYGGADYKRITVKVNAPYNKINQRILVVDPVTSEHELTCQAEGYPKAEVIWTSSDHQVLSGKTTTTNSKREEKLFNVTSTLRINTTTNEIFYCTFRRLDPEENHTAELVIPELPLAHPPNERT

| SMILES | IC50 [nM] |
| --- | --- |
| COC(=O)C1(O)CCN(CCOc2cc(OCc3cccc(-c4ccc5c(c4)OCCO5)c3C)c(Cl)cc2CN2CCCC[C@H]2C(=O)O)CC1 [Example 1051, (S)-1-(5-Chloro-4-((3-(2,3-dihydrobenzo[b][1,4]dioxin-6-yl)-2-methylbenzyl)oxy)-2-(2-(4-hydroxy-4-(methoxycarbonyl)piperidin-1-yl)ethoxy)benzyl)piperidine-2-carboxylic acid] | 1 |
| COC(=O)C1(O)CCN(CCOc2cc(OCc3cccc(-c4ccc5c(c4)OCCO5)c3C)c(Cl)cc2CNC(C)(CO)CO)CC1 [Example 1053, Methyl 1-(2-(4-chloro-5-((3-(2,3-dihydrobenzo[b][1,4]dioxin-6-yl)-2-methylbenzyl)oxy)-2-(((1,3-dihydroxy-2-methylpropan-2-yl)amino)methyl)phenoxy)ethyl)-4-hydroxypiperidine-4-carboxylate] | 1.4 |
| Cc1c(COc2cc(OCCN3CCC(O)(C(=O)O)CC3)c(CN3CCCC[C@H]3C(=O)O)cc2Cl)cccc1-c1ccc2c(c1)OCCO2 [Example 1054, (S)-1-(2-(2-(4-Carboxy-4-hydroxypiperidin-1-yl)ethoxy)-5-chloro-4-((3-(2,3-dihydrobenzo[b]1[1,4]dioxin-6-yl)-2-methylbenzyl)oxy)benzyl)piperidine-2-carboxylic acid] | 1.8 |
| Cc1c(COc2cc(OCCN3CCCC(O)(C(F)(F)F)C3)c(CN3CCCC[C@H]3C(=O)O)cc2Cl)cccc1-c1ccc2c(c1)OCCO2 (stereo partly drawn) [Example 1058, (2S)-1-(5-Chloro-4-((3-(2,3-dihydrobenzo[b][1,4]dioxin-6-yl)-2-methylbenzyl)oxy)-2-(2-(3-hydroxy-3-(trifluoromethyl)piperidin-1-yl)ethoxy)benzyl)piperidine-2-carboxylic acid] | 21.8 |
| Cc1c(COc2cc(OCCN3CCCC(O)(C(F)(F)F)C3)c(CNC(C)(CO)CO)cc2Cl)cccc1-c1ccc2c(c1)OCCO2 (stereo not drawn) [Example 1059, 2-((5-Chloro-4-((3-(2,3-dihydrobenzo[b][1,4]dioxin-6-yl)-2-methylbenzyl)oxy)-2-(2-(3-hydroxy-3-(trifluoromethyl)piperidin-1-yl)ethoxy)benzyl)amino)-2-methylpropane-1,3-diol] | 2.2 |
| Cc1c(COc2cc(OCCN3CCS(=O)(=O)CC3)c(CN3CCCC[C@H]3C(=O)O)cc2Cl)cccc1-c1ccc2c(c1)OCCO2 [Example 1060, (S)-1-(5-chloro-4-((3-(2,3-dihydrobenzo[b][1,4]dioxin-6-yl)-2-methylbenzyl)oxy)-2-(2-(1,1-dioxidothiomorpholino)ethoxy)benzyl)piperidine-2-carboxylic acid] | 9.2 |
| Cc1c(COc2cc(OCC(=O)N3CCS(=O)(=O)CC3)c(CN3CCCC[C@H]3C(=O)O)cc2Cl)cccc1-c1ccc2c(c1)OCCO2 [Example 1061, (S)-1-(5-chloro-4-((3-(2,3-dihydrobenzo[b][1,4]dioxin-6-yl)-2-methylbenzyl)oxy)-2-(2-(1,1-dioxidothiomorpholino)-2-oxoethoxy)benzyl)piperidine-2-carboxylic acid] | 455 |
| Cc1c(COc2cc(OCc3cncc(C(=O)NCCCN(C)C)c3)c(CN3CC[C@H](O)C3)cc2Cl)cccc1-c1ccc2c(c1)OCCO2 [Example 2007, (S)-5-((4-chloro-5-((3-(2,3-dihydrobenzo[b][1,4]dioxin-6-yl)-2-methylbenzyl)oxy)-2-((3-hydroxypyrrolidin-1-yl)methyl)phenoxy)methyl)-N-(3-(dimethylamino)propyl)nicotinamide] | 3.4 |
| Cc1c(COc2cc(OCc3cncc(C(=O)NCCC(=O)O)c3)c(CN3CC[C@H](O)C3)cc2Cl)cccc1-c1ccc2c(c1)OCCO2 [Example 2008, (S)-3-(5-((4-chloro-5-((3-(2,3-dihydrobenzo[b][1,4]dioxin-6-yl)-2-methylbenzyl)oxy)-2-((3-hydroxypyrrolidin-1-yl)methyl)phenoxy)methyl)nicotinamido)propanoic acid] | 5.2 |
| Cc1c(COc2cc(OCc3cncc(C(=O)N[C@@H](CO)C(=O)O)c3)c(CN3CC[C@H](O)C3)cc2Cl)cccc1-c1ccc2c(c1)OCCO2 [Example 2009, (S)-2-(5-((4-chloro-5-((3-(2,3-dihydrobenzo[b][1,4]dioxin-6-yl)-2-methylbenzyl)oxy)-2-(((S)-3-hydroxypyrrolidin-1-yl)methyl)phenoxy)methyl)nicotinamido)-3-hydroxypropanoic acid] | 4.6 |

Other lines, results leading:

| IC50 [nM] | SMILES |
| --- | --- |
| 4.4 | Cc1c(COc2cc(OCC3CCOCC3)c(CN[C@](C)(CO)C(=O)O)cc2Cl)cccc1-c1ccc2c(c1)OCCO2 [Example 1045, (R)-2-((5-Chloro-4-((3-(2,3-dihydrobenzo[b][1,4]dioxin-6-yl)-2-methylbenzyl)oxy)-2-((tetrahydro-2H-pyran-4-yl)methoxy)benzyl)amino)-3-hydroxy-2-methylpropanoic acid] |
| 7 | Cc1c(COc2cc(OCC3CCOCC3)c(CN3CCCC[C@H]3C(=O)O)cc2Cl)cccc1-c1ccc2c(c1)OCCO2 [Example 1046, (S)-1-(5-Chloro-4-((3-(2,3-dihydrobenzo[b][1,4]dioxin-6-yl)-2-methylbenzyl)oxy)-2-((tetrahydro-2H-pyran-4-yl)methoxy)benzyl)piperidine-2-carboxylic acid] |
| 5.4 | Cc1c(COc2cc(OCC3CCOCC3)c(CNC(C)(CO)CO)cc2Cl)cccc1-c1ccc2c(c1)OCCO2 [Example 1047, 2-((5-Chloro-4-((3-(2,3-dihydrobenzo[b][1,4]dioxin-6-yl)-2-methylbenzyl)oxy)-2-((tetrahydro-2H-pyran-4-yl)methoxy)benzyl)amino)-2-methylpropane-1,3-diol] |
| 11.1 | Cc1c(COc2cc(OCC3CCC3)c(CN[C@](C)(CO)C(=O)O)cc2Cl)cccc1-c1ccc2c(c1)OCCO2 [Example 1048, (R)-2-((5-chloro-2-(cyclobutylmethoxy)-4-((3-(2,3-dihydrobenzo[b][1,4]dioxin-6-yl)-2-methylbenzyl)oxy)benzyl)amino)-3-hydroxy-2-methylpropanoic acid] |
| 14.2 | Cc1c(COc2cc(OCC3CCC3)c(CNC(C)(CO)CO)cc2Cl)cccc1-c1ccc2c(c1)OCCO2 [Example 1049, 2-((5-Chloro-2-(cyclobutylmethoxy)-4-((3-(2,3-dihydrobenzo[b][1,4]dioxin-6-yl)-2-methylbenzyl)oxy)benzyl)amino)-2-methylpropane-1,3-diol] |
| 59.8 | Cc1c(COc2cc(OCC3CCC3)c(CN3CCCC[C@H]3C(=O)O)cc2Cl)cccc1-c1ccc2c(c1)OCCO2 [Example 1050, (S)-1-(5-Chloro-2-(cyclobutylmethoxy)-4-((3-(2,3-dihydrobenzo[b][1,4]dioxin-6-yl)-2-methylbenzyl)oxy)benzyl)piperidine-2-carboxylic acid] |
| 1.3 | COC(=O)C1(O)CCN(CCOc2cc(OCc3cccc(-c4ccc5c(c4)OCCO5)c3C)c(Cl)cc2CN[C@](C)(CO)C(=O)O)CC1 [Example 1052, (R)-2-((5-Chloro-4-((3-(2,3-dihydrobenzo[b][1,4]dioxin-6-yl)-2-methylbenzyl)oxy)-2-(2-(4-hydroxy-4-(methoxycarbonyl)piperidin-1-yl)ethoxy)benzyl)amino)-3-hydroxy-2-methylpropanoic acid] |
| 0.4 | Cc1c(COc2cc(OCCN3CCC(O)(C(=O)O)CC3)c(CN[C@](C)(CO)C(=O)O)cc2Cl)cccc1-c1ccc2c(c1)OCCO2 [Example 1055, (R)-1-(2-(2-(((2-Carboxy-1-hydroxypropan-2-yl)amino)methyl)-4-chloro-5-((3-(2,3-dihydrobenzo[b]1[1,4]dioxin-6-yl)-2-methylbenzyl)oxy)phenoxy)ethyl)-4-hydroxypiperidine-4-carboxylic acid] |
| 0.6 | Cc1c(COc2cc(OCCN3CCC(O)(C(=O)O)CC3)c(CNC(C)(CO)CO)cc2Cl)cccc1-c1ccc2c(c1)OCCO2 [Example 1056, 1-(2-(4-Chloro-5-((3-(2,3-dihydrobenzo[b][1,4]dioxin-6-yl)-2-methylbenzyl)oxy)-2-(((1,3-dihydroxy-2-methylpropan-2-yl)amino)methyl)phenoxy)ethyl)-4-hydroxypiperidine-4-carboxylic acid] |
| 6.2 | Cc1c(COc2cc(OCCN3CCCC(O)(C(F)(F)F)C3)c(CN[C@](C)(CO)C(=O)O)cc2Cl)cccc1-c1ccc2c(c1)OCCO2 (stereo partly drawn) [Example 1057, (2R)-2-((5-Chloro-4-((3-(2,3-dihydrobenzo[b][1,4]dioxin-6-yl)-2-methylbenzyl)oxy)-2-(2-(3-hydroxy-3-(trifluoromethyl)piperidin-1-yl)ethoxy)benzyl)amino)-3-hydroxy-2-methylpropanoic acid] |
| 9.5 | Cc1c(COc2cc(OCCCN(C)C)c(CN[C@@](C)(CO)C(=O)O)cc2Cl)cccc1-c1ccc2c(c1)OCCO2 [Example 2001, (S)-2-((5-chloro-4-((3-(2,3-dihydrobenzo[b][1,4]dioxin-6-yl)-2-methylbenzyl)oxy)-2-(3-(dimethylamino)propoxy)benzyl)amino)-3-hydroxy-2-methylpropanoic acid] |
| 6.5 | Cc1c(COc2cc(OCCCN(C)C)c(CN[C@@H](CO)C(=O)O)cc2Cl)cccc1-c1ccc2c(c1)OCCO2 [Example 2002, (S)-2-((5-chloro-4-((3-(2,3-dihydrobenzo[b][1,4]dioxin-6-yl)-2-methylbenzyl)oxy)-2-(3-(dimethylamino)propoxy)benzyl)amino)-3-hydroxypropanoic acid] |
| 6.5 | Cc1c(COc2cc(OCC3CCCN(C)C3)c(CN[C@@](C)(CO)C(=O)O)cc2Cl)cccc1-c1ccc2c(c1)OCCO2 (stereo partly drawn) [Example 2003, (2S)-2-((5-chloro-4-((3-(2,3-dihydrobenzo[b][1,4]dioxin-6-yl)-2-methylbenzyl)oxy)-2-((1-methylpiperidin-3-yl)methoxy)benzyl)amino)-3-hydroxy-2-methylpropanoic acid] |
| 5.8 | Cc1c(COc2cc(OCC3CCCN(C)C3)c(CN[C@@H](CO)C(=O)O)cc2Cl)cccc1-c1ccc2c(c1)OCCO2 (stereo partly drawn) [Example 2004, (2S)-2-((5-chloro-4-((3-(2,3-dihydrobenzo[b][1,4]dioxin-6-yl)-2-methylbenzyl)oxy)-2-((1-methylpiperidin-3-yl)methoxy)benzyl)amino)-3-hydroxypropanoic acid] |
